Paper PMC5362899, “Structural insights into the nucleotide base specificity of P2X receptors” (Scientific Reports, 2017)

Molecular target: T1, zfP2X4 (ΔP2X4-C) T189V mutant (Danio rerio, UniProt F8W463, N187R/N78K/T189V)
T1 construct: EGFP (N); octa-histidine tag (N); made in house; host or cells: Sf9 insect cells
T1 sequence (F8W463 28-365 N78K/N187R/T189V limits assumed): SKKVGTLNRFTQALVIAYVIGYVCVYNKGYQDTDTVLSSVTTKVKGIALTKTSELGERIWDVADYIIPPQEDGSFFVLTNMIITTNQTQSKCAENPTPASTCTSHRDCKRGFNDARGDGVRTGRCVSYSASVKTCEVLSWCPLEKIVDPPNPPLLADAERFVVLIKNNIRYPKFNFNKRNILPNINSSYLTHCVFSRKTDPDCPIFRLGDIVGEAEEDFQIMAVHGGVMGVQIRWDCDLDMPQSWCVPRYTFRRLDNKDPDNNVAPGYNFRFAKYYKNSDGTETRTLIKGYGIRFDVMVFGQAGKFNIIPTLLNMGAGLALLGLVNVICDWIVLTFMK
Assay: ATR-FTIR difference spectroscopy, residual nucleotide after washing, zfP2X4 T189V
Format: binding, zebrafish
Details: 10 μM nucleotide, after 15–30 min washing, P-O stretching bands 1250–800 cm−1
Excerpt: To further investigate the nucleotide binding specificity of zfP2X4, we applied ligand-binding induced difference Attenuated total reflectance (ATR)-Fourier-transform infrared (FTIR) spectroscopy on the WT and conserved threonine mutants (T189S and T189V) of zfP2X4.
Figure 5 ATR-FTIR spectroscopic analysis of zfP2X4 for the ATP and CTP bindings. (A) The reduction of the ligand binding induced difference spectra in the ΔP2X4-C ^zfWT, ^zfT189S and ^zfT189V mutants around the P-O stretching region (1250–800 cm^−1) after washing treatment for 15–30 min. (B) The residual nucleotides after the washing treatment estimated from the ATR-FTIR analysis in (A).
The nucleotide binding affinity of zfP2X4 was analyzed by reduction of the band intensity after washing treatment (Fig. 5). The reduction of the P-O stretching bands between 1250–800 cm^−1 was monitored for ATP (Fig. 5A). […]
The perfusion-induced difference FTIR spectroscopy was performed as similarly to the previous studies. […] ATR-FTIR spectra of the samples were recorded at 25 °C and 2 cm^−1 resolution using a VERTEX 70 spectrometer (Bruker Optics) equipped with a liquid-nitrogen-cooled MCT detector. […] The obtained difference spectra were normalized based on the absolute absorbance of the amide I band at 1653 cm^−1, which well correlates with the quantities of the proteins on the ATR crystals. […]

| SMILES | residual nucleotide binding after washing |
| --- | --- |
| Nc1ncnc2c1ncn2[C@@H]1O[C@H](COP(=O)(O)OP(=O)(O)OP(=O)(O)O)[C@@H](O)[C@H]1O [ATP, Adenosine 5-triphosphate] | 10% |
| Nc1ccn([C@@H]2O[C@H](COP(=O)(O)OP(=O)(O)OP(=O)(O)O)[C@@H](O)[C@H]2O)c(=O)n1 [CTP] | ~ 30% |
